Several values for one entry are separate records, joined by “and”; a condition that tells them apart may be missing. Equal entries are not always repeated. Entries after “also recorded” stand apart in the source; their conditions may differ. Where two headings read alike, the source gives them in different places. Non-standard residues stand in square brackets, D forms with d. Residues, ends and D or L forms follow the SMILES beside them. Dolaproine = CO[C@@H]([C@@H]1CCCN1)[C@@H](C)C(=O)O; Dil = CC[C@H](C)[C@H](NC)[C@@H](CC(=O)O)OC; NMeV = CN[C@H](C(=O)O)C(C)C

For series [1] the following is noted: cited from earlier work.
The test system of the next series is Detroit 562. Nature of the series: Cytotoxicity, Alamar Blue assay. It counts as cell-based, human. Here is the method: (§1) Murine colorectal (MC38 (ENH204-FP)) cancer cell lines were obtained from Kerafast. Murine head and neck MOC1 and MOC2 were generously provided by Dr. R. Uppaluri. CAL27 PIK3CA H1047R expressing cells and 4MOSC1 cells were generated in Dr. Gutkind’s laboratory and previously characterized[42],[55]. […] MC38 cells were cultured in DMEM supplemented with 10% FBS, 1 mM sodium pyruvate (Gibco), 1% non-essential amino acids (Gibco), and 10 mM HEPES (Gibco). MOC1 and MOC2 cells were cultured in IMDM (Lonza)/F-12K nutrient mixture at a 2:1 mixture with 5% FBS, 5 ng/ml EGF (EMD Millipore), 400 ng/ml hydrocortisone (Sigma), and […] insulin (Sigma). On receipt, each cell line was expanded, cryopreserved as low passage stocks, and routinely tested for mycoplasma. Cisplatin (Enzo Biosciences), paclitaxel (Sigma), and MMAE (Concortis) were reconstituted in DMSO. Clinical-grade CDX3379 was provided by Celldex. Clinical grade cetuximab (Erbitux, Lilly Medical) was obtained from UCSD Moores Cancer Center Pharmacy.
(§2) Cells were plated in 96-well plates and exposed to a drug concentration range for 72 h. Alamar Blue was added to the cells and allowed to incubate for 2–4 h at 37 °C. Plates were analyzed using a plate reader with fluorescence measured at 560 nm. Fractional survival was normalized to untreated control cell fluorescent values. Drug IC50 was calculated using Prism software (GraphPad, La Jolla, CA). Cell viability, cytotoxicity and apoptosis were also measured by ApoTox-Glo Triplex Assay (Promega).
Background: Resazurin is reduced to fluorescent resorufin, in cell work by metabolically active cells.

A further series relates to CAL27. In words: Cytotoxicity, Alamar Blue assay. It is filed as cell-based, human. Here is the method: as §1, §2
For another series, the system named is A549. Nature of the series: Cytotoxicity, Alamar Blue assay. It counts as cell-based, human. The conditions noted are these: 72 h drug exposure, one value per biological replicate. Here is the method: as §2
The subject of a further series is HCT116. In words: Cytotoxicity, Alamar Blue assay. It counts as cell-based, human. The note with it: 72 h drug exposure, one value per biological replicate. The method, then:
as §2

A further series concerns MOC1. In words: Cytotoxicity, Alamar Blue assay. It counts as cell-based, murine. Here is the method: as §1, with “Clinical-grade CDX3379 was provided by Celldex.” left out
as §2
(§3) measured by Alamar Blue assay. For Alamar Blue assay cytotoxicity, we measured cell viability at 72 hr of […]

Another series deals with MOC2. In words: Cytotoxicity, Alamar Blue assay. It counts as cell-based, murine. Here is the method:
as §1, with “Clinical-grade CDX3379 was provided by Celldex.” left out
as §2, §3

The next series relates to LL2. Nature of the series: Cytotoxicity, Alamar Blue assay. It is filed as cell-based, murine. Here is the method: as §1, §2
The next series concerns MC38. In words: Cytotoxicity, Alamar Blue assay. It counts as cell-based, murine. The method, then:
as §1, §2

In the next series the test system is B16. Nature of the series: Cytotoxicity, Alamar Blue assay. It is filed as cell-based, murine. The method, then:
as §1, §2

A further series concerns 4MOSC1. In words: Cytotoxicity, Alamar Blue assay. It counts as cell-based, murine. Here is the method:
as §1, §2

Series [2] has as its system melanoma and lung cancer models. The conditions noted are these: without radiotherapy; cited from earlier work. From the text:
In the last decade, therapeutics targeting immune checkpoint inhibitors (i.e., CTLA-4, PD-1, and PD-L1) have revolutionized cancer care for subsets of oncology patients[24],[25]. There is tremendous interest in developing strategies to further improve immune checkpoint inhibitor responses to wider patient populations. To achieve increasing therapeutic precision, integrating the specificity of ADC with inherent targeting of radiotherapy and immunotherapy is appealing. […] U3-1402 is a HER3-targeted ADC with a topoisomer ...

A further series concerns B16 tumors. In words: Subcutaneous tumor therapy, CDX3379-MMAE or CDX3379-MMAF with IR, mouse survival. It counts as in vivo, C57BL/6 mice.

Protocol for B16 tumors: MOC1, B16, LL/2, and MC38 tumor cells were injected subcutaneously into the hindlimbs of 6-week-old female C57BL/6 albino mice in 100 µl of 1:1 Matrigel (BD) and PBS solution. Fractionated IR was delivered focally to the tumor-bearing hindlimbs (3 Gy to MC38 tumors and 5 Gy to LL/2 and B16 tumors) as indicated in figure legends using a PXI X-RAD 225 XL irradiator at maximal dose rate of 3 Gy/min with a beam-conditioning aluminum filter (Precision X-ray Irradiation). For RAG1 KO studies, 6-week-old female Rag1^tm1Mom mice were injected subcutaneously with tumor cells in their hindlimbs (Jackson Labs). For CD8 depletion studies, mice were i.p. injected with anti-CD8 (BioXCell #BE0117) at 10 mg/kg on days −6, −5 and −4 tumor cell implant and then weekly starting on day after tumor cells were injected or control antibody. […] Tumor volumes were measured and calculated using the formula as ½ * length * width^2. Mice were sacrificed when tumor volume reached >1500 mm^3, maximal tumor volume approved on our protocol for subcutaneous tumors.

For `CC[C@H](C)[C@@H]([C@@H](CC(=O)N1CCC[C@H]1[C@H](OC)[C@@H](C)C(=O)N[C@@H](Cc1ccccc1)C(=O)O)OC)N(C)C(=O)[C@@H](NC(=O)[C@@H](NC)C(C)C)C(C)C` [MMAF, monomethyl auristatin F] (H-[NMeV]V[Dil][Dolaproine]F-OH), the “cell permeability as free drug” value in series [1] was “reduced cell permeability compared to MMAE”.
With `CC(=O)O[C@H]1C(=O)[C@@]2(C)[C@H]([C@H](OC(=O)c3ccccc3)[C@]3(O)C[C@H](OC(=O)[C@H](O)[C@@H](NC(=O)c4ccccc4)c4ccccc4)C(C)=C1C3(C)C)[C@]1(OC(C)=O)CO[C@@H]1C[C@@H]2O` [Paclitaxel], the 50% inhibitory concentration (IC50) was 5.71 nM with Detroit 562 (Homo sapiens, Detroit 562, 72 h, read-out: IC50 values, Detroit 562, 72 h drug exposure, one value per biological replicate); 5.94 nM and 3.87 nM and 4.75 nM in the series with Detroit 562 (read-out: IC50 values, Detroit 562, 72 h drug exposure, one value per biological replicate); 1.4 nM and 1.52 nM and 3.46 nM and 4.62 nM and 3.12 nM and 3.36 nM in the series with CAL27 (read-out: IC50 values, 72 h drug exposure, one value per biological replicate); 23.3 nM and 15.1 nM in the series with A549; 16.6 nM in the series on A549 (Homo sapiens, A549, 72 h); 2.04 nM and 8.38 nM and 12.4 nM and 9.33 nM with HCT116. The IC50 in the series with MOC1 (read-out: IC50 values; MOC1; 72 h drug exposure, Alamar Blue; one value per biological replicate) is 45.4 nM and 54.2 nM and 26.8 nM and 24.6 nM; in the series on MOC2 (Mus musculus, 72 h, read-out: IC50 values, MOC2, 72 h drug exposure, one value per biological replicate), 43.5 nM; in the series with MOC2 (read-out: IC50 values, MOC2, 72 h drug exposure, one value per biological replicate) it was 56.4 nM; with LL2 (Mus musculus, LL/2, 72 h, read-out: IC50 values, LL2, 72 h drug exposure, one value per biological replicate) it was 15.3 nM; in the series on LL2 (read-out: IC50 values, LL2, 72 h drug exposure, one value per biological replicate), 16.6 nM; with MC38 (Mus musculus, MC-38, 72 h, read-out: IC50 values, MC38, 72 h drug exposure, one value per biological replicate), 67 nM. Besides, the half-inhibitory concentration (IC50) in the series on MC38 (read-out: IC50 values, MC38, 72 h drug exposure, one value per biological replicate) was found to be 75.7 nM; in the series with B16 (Mus musculus, B16, 72 h, read-out: IC50 values, B16, 72 h drug exposure, one value per biological replicate) it was 6.1 nM; in the series with B16 (read-out: IC50 values, B16, 72 h drug exposure, one value per biological replicate), 7.8 nM; in the series with 4MOSC1 (Mus musculus, 72 h, read-out: IC50 values, 4MOSC1, 72 h drug exposure, one value per biological replicate) it was 7.65 nM; in the series on 4MOSC1 (read-out: IC50 values, 4MOSC1, 72 h drug exposure, one value per biological replicate), 12.9 nM.
With “Enapotamab vedotin: AXL-targeted ADC conjugate with an MMAE warhead”, the “survival and tumor control” value in series [2] is “prolonged mouse survival; also recorded: failed to generate durable tumor control”.
Regarding `N.N.[Cl][Pt][Cl]` [Cisplatin], the IC50 in the series on Detroit 562 (Detroit 562, 72 h drug exposure, one value per biological replicate, read-out: IC50 values) was 11500 nM and 9550 nM and 10400 nM and 11800 nM; with CAL27 (72 h drug exposure, one value per biological replicate, read-out: IC50 values), 3650 nM and 3760 nM and 7310 nM and 8270 nM and 7270 nM and 6950 nM; in the series on A549 it was 22600 nM and 27200 nM and 13600 nM and 15400 nM; in the series with HCT116 it was 42200 nM and 55500 nM; in the series with MOC1 (MOC1; 72 h drug exposure, Alamar Blue; one value per biological replicate; read-out: IC50 values), 13700 nM and 15300 nM and 10400 nM and 10700 nM; with MOC2 (MOC2, 72 h drug exposure, one value per biological replicate, read-out: IC50 values), 8750 nM and 9990 nM. Besides, the 50% inhibitory concentration (IC50) with LL2 (LL2, 72 h drug exposure, one value per biological replicate, read-out: IC50 values) is 1080 nM and 745 nM; with MC38 (MC38, 72 h drug exposure, one value per biological replicate, read-out: IC50 values), 3640 nM and 3830 nM; in the series with B16 (B16, 72 h drug exposure, one value per biological replicate, read-out: IC50 values), 3770 nM and 4490 nM; with 4MOSC1 (4MOSC1, 72 h drug exposure, one value per biological replicate, read-out: IC50 values), 1370 nM and 1460 nM.

B1: CDX3379-MMAF: anti-HER3 antibody CDX3379 conjugated to MMAF via MC-VC-PABC linker (conjugate, chains of the INN, looked up)
VH: EVQLLESGGGLVQPGGSLRLSCAASGFTFSSYAMSWVRQAPGKGLEWVSAINSQGKSTYYADSVKGRFTISRDNSKNTLYLQMNSLRAEDTAVYYCARWGDEGFDIWGQGTLVTVSS
VL: DIQMTQSPSSLSASVGDRVTITCRASQGISNWLAWYQQKPGKAPKLLIYGASSLQSGVPSRFSGSGSGTDFTLTISSLQPEDFATYYCQQYSSFPTTFGQGTKVEIK
modifications: MMAF via MC-VC-PABC linker
On to B1, for which the “tumor control and survival, + IR” value in the series with B16 tumors (B16, 2.5 nmoles ADC x 2 doses + IR 5 Gy x 3) was “CDX3379-MMAE proved to be superior to CDX3379-MMAF”. In addition, in the series with B16 tumors (with IR, individual mice, status at the day, Figure 3h), the “Mouse survival, status” value was found to be 1.

Broadly, the IC50 is the concentration at which inhibition is half-maximal.
